Measured values reported in patent US5925730A, “GnRH antagonists” (Ferring BV, priority 1997, dated 1999).
Non-standard residues stand in square brackets, D forms with d. Residues, ends and D or L forms follow the SMILES beside them. *: point of attachment. dPhe(4-NHCONH2) = NC(=O)Nc1ccc(C[C@@H](N)C(=O)O)cc1; Phe(4-NHCONH2) = NC(=O)Nc1ccc(C[C@H](N)C(=O)O)cc1; Dihydroorotyl(S) = O=C1C[C@@H](C(=O)*)NC(=O)N1; dPhe(4-NH2) = Nc1ccc(C[C@@H](N)C(=O)O)cc1; dPhe(4-Cl) = N[C@H](Cc1ccc(Cl)cc1)C(=O)O; Phe(4-NH2) = Nc1ccc(C[C@H](N)C(=O)O)cc1; d2Nal = N[C@H](Cc1ccc2ccccc2c1)C(=O)O; Lys(iPr) = CC(C)NCCCC[C@H](N)C(=O)O; d3Pal = N[C@H](Cc1cccnc1)C(=O)O; X1 = O=C1NC[C@@H](C(=O)*)N1

Tests used:
secretion of LH = experiment: in vivo rat LH suppression test (circulating LH levels in castrated male rats after sc injection); parameters: species or system castrated male Sprague-Dawley rats; conditions: 50 micrograms sc
Experimental: The peptide is assayed in vivo to determine its effectiveness to suppress the secretion of LH in rats. Measurement of circulating LH levels in castrated male Sprague-Dawley rats treated subcutaneously with the peptide is carried out as reported in C. Rivier et al. Biol. Reproduc., 1983, 29, 374-378. The peptides are first dissolved at a concentration of 1.0 or 10 mg/ml in bacteriostatic water and then further diluted in 0.04 M phosphate buffer containing 0.1% BSA. Subsequent dilutions are made in phosphate buffer. The peptides are injected sc into 5 rats, and blood samples (300 μl) are collected under metotane anesthesia. Sera (50 μl) are tested for LH levels in duplicate using reagents provided by the National Pituitary and Hormone Distribution Program of the NIDDK.

[1] = water solubility compared with Acyline; format: physicochemical
[2] = examination of injected rats for tolerance and gelling at the point of injection; format: in vivo; conditions: 50 μg per rat sc

CC(=O)Nc1ccc(C[C@@H](NC(=O)[C@H](Cc2ccc(NC(N)=O)cc2)NC(=O)[C@H](CO)NC(=O)[C@@H](Cc2cccnc2)NC(=O)[C@@H](Cc2ccc(Cl)cc2)NC(=O)[C@@H](Cc2ccc3ccccc3c2)NC(C)=O)C(=O)N[C@@H](CC(C)C)C(=O)N[C@@H](CCCCNC(C)C)C(=O)N2CCC[C@H]2C(=O)N[C@H](C)C(N)=O)cc1 [Example 1Q, Ac-β-D-2Nal-D-4Cpa-D-3Pal-Ser-4Aph(carbamoyl)-D-4Aph(Ac)-Leu-Lys(isopropyl)-Pro-D-Ala-NH2] (Ac-[d2Nal][dPhe(4-Cl)][d3Pal]S[Phe(4-NHCONH2)][dPhe(4-NH2)](Ac)L[Lys(iPr)]P[dA]-NH2)
effectiveness in suppression of LH compared with Acyline, first two days (secretion of LH; days 1-2): equal to about values of Acyline | suppression of LH compared with Acyline at days 3 and 4 (72 and 96 hours; after the first 2 days) (secretion of LH; days 3-4): not as effective as Acyline | water solubility compared with Acyline [1]: more water soluble than Acyline

CC(=O)N[C@H](Cc1ccc2ccccc2c1)C(=O)N[C@H](Cc1ccc(Cl)cc1)C(=O)N[C@H](Cc1cccnc1)C(=O)N[C@@H](CO)C(=O)N[C@@H](Cc1ccc(NC(=O)[C@@H]2CC(=O)NC(=O)N2)cc1)C(=O)N[C@H](Cc1ccc(NC(N)=O)cc1)C(=O)N[C@@H](CC(C)C)C(=O)N[C@@H](CCCCNC(C)C)C(=O)N1CCC[C@H]1C(=O)N[C@H](C)C(N)=O [Example 1, Ac-D-2Nal-(4Cl)D-Phe-D-3Pal-Ser-4Aph(hydroorotyl)-D-4Aph(carbamoyl)-Leu-Lys(isopropyl)-Pro-D-Ala-NH2] (Ac-[d2Nal][dPhe(4-Cl)][d3Pal]S[Phe(4-NH2)](Dihydroorotyl(S))[dPhe(4-NHCONH2)]L[Lys(iPr)]P[dA]-NH2)
gelling at the point of injection [2]: no significant gelling | tolerance of the peptide in injected rats [2]: very well tolerated

CC(=O)Nc1ccc(C[C@H](NC(=O)[C@H](CO)NC(=O)[C@@H](Cc2cccnc2)NC(=O)[C@@H](Cc2ccc(Cl)cc2)NC(=O)[C@@H](Cc2ccc3ccccc3c2)NC(C)=O)C(=O)N[C@H](Cc2ccc(NC(N)=O)cc2)C(=O)N[C@@H](CC(C)C)C(=O)N[C@@H](CCCCNC(C)C)C(=O)N2CCC[C@H]2C(=O)N[C@H](C)C(N)=O)cc1 [Example 1P, Ac-β-D-2Nal-D-4Cpa-D-3Pal-Ser-4Aph(Ac)-D-4Aph(carbamoyl)-Leu-Lys(isopropyl)-Pro-D-Ala-NH2] (Ac-[d2Nal][dPhe(4-Cl)][d3Pal]S[Phe(4-NH2)](Ac)[dPhe(4-NHCONH2)]L[Lys(iPr)]P[dA]-NH2)
duration of bioactivity for the suppression of LH (rating in words) (secretion of LH): long duration | suppression of LH compared with Acyline at 96 hours / 4 days (after day 3) (secretion of LH; 96 hours): slightly superior to Acyline | effectiveness in suppression of LH compared with Acyline, day 1 through day 3 (secretion of LH; days 1-3): substantially the same as Acyline | water solubility compared with Acyline [1]: more water soluble than Acyline

CC(=O)Nc1ccc(C[C@@H](NC(=O)[C@H](Cc2ccc(NC(=O)[C@@H]3CNC(=O)N3)cc2)NC(=O)[C@H](CO)NC(=O)[C@@H](Cc2cccnc2)NC(=O)[C@@H](Cc2ccc(Cl)cc2)NC(=O)[C@@H](Cc2ccc3ccccc3c2)NC(C)=O)C(=O)N[C@@H](CC(C)C)C(=O)N[C@@H](CCCCNC(C)C)C(=O)N2CCC[C@H]2C(=O)N[C@H](C)C(N)=O)cc1 [Example 3A] (Ac-[d2Nal][dPhe(4-Cl)][d3Pal]S[Phe(4-NH2)](X1)[dPhe(4-NH2)](Ac)L[Lys(iPr)]P[dA]-NH2)
water solubility compared with Acyline [1]: more water soluble than Acyline
